From patent publication US10590463B2, “Diagnostic methods and kits for monitoring response to chemotherapy in ovarian cancer” (RNA Disgnostics Inc., priority 2011, dated 2020)

Test system: A2780 cells
Assay: chemotherapy-dependent RNA degradation (RNA integrity number, Agilent 2100 Bioanalyzer) in cultured A2780 cells
Format: cell-based
Details: for effect on RNA integrity (in words): up to 40 μM; for concentration at which reductions in RNA integrity are induced: range tested 2.5-40 μM; for change in RNA integrity at low concentrations: low (micromolar) concentrations
Experimental: Before starting RNA isolation, an appropriate volume of buffer RLT is prepared by adding β-mercaptoethanol to buffer RLT in a ratio of 10 μl for every 1 ml of solution. RLT buffer is stable for a month after addition of β-ME. […] This precipitate was redissolved by warming at 30° C. and then placing the solution at room temperature. Aliquots of 0.5 ml RLT buffer (with β-ME) were placed in Eppendorf microfuge tubes prior to RNA isolation procedures. […] The resulting lysate is passed at least 5 times through a 20-gauge needle (0.9 mm diameter) fitted to an RNase-free syringe to shear associated genomic DNA. The sheared lysate is then transferred to a microcentrifuge tube and centrifuged at maximum speed for 3 minutes, with transfer of the supernatant to a new tube. One volume of 70% ethanol (500 μl) is added to the homogenized lysate, and the sample mixed well by pipetting. If some volume of the lysate is lost during homogenization, the volume of ethanol is adjusted accordingly. […] Up to 700 μl of the sample is then applied to an RNeasy mini column placed in a 2 ml collection tube, including any precipitate that may have formed. […] Any remaining lysate is applied to the column and the column centrifuged as described above, discarding the flow-through. Buffer RW1 (700 μl) is then added to the RNeasy column in a 2 ml microfuge tube to wash the column free of unbound lysate components. […] The RNeasy column is placed into a new 2 ml microfuge tube and 500 μl of RPE buffer is added to wash the column. After centrifugation for 30 seconds at ≥8000×g (≥10,000 rpm) to remove the wash buffer, two identical washes of the column in RPE buffer are performed. This buffer is supplied as a concentrate, and must be diluted with 4 volumes of ethanol (100%) prior to use. Any residual liquid associated with the column is then removed by centrifugation at full speed for 1 minute. […] After leaving the column at room temperature for 1 minute, the column is centrifuged for 1 min at full speed to collect the eluted RNA. To obtain a higher concentration and complete elution of the RNA from column, a second elution step was performed by reapplying the eluate to the column and centrifuging a second time.
This document includes a detailed description on setting up the assay equipment, preparing and running the RNA Nanochips, and analysis of the capillary electrophoretic data using the Agilent […] Bioanalyzer and its associated “Expert software”. It is important that all “Essential Measurement Practices” described in the document are followed. RNA 6000 “Nanochips” and associated solutions are obtained in RNA 6000 Nano kits that can be purchased from Agilent Technologies (Mississauga, ON). RNA Nanochips are manufactured by Caliper Life Sciences (Hopkinton, Mass.). The sizes of the rRNAs, and the concentration of RNA in a given sample are determined by extrapolation from a standard curve of reference RNAs provided in the RNA 6000 NANO kits. All data from the Bioanalyzer runs were stored both as PDF and XAD files. The Agilent 2100 Expert software was used to obtain all data from the capillary electrophoresis runs, including the RNA quality and quantity for a given RNA preparation.

[1] = A2780 cells, 40 μM, 24 h, FIG. 1
[2] = 40 μM (each drug), same experiment, FIG. 2
[3] = 40 μM (each drug), same experiment, from 9.40±0.12 units, FIG. 2

CC(=O)O[C@H]1C(=O)[C@@]2(C)[C@H]([C@H](OC(=O)c3ccccc3)[C@]3(O)C[C@H](OC(=O)[C@H](O)[C@@H](NC(=O)c4ccccc4)c4ccccc4)C(C)=C1C3(C)C)[C@]1(OC(C)=O)CO[C@@H]1C[C@@H]2O [paclitaxel]
reduction in RNA integrity (A2780 cells, 20 μM, 24 h, FIG. 1): 52.5% | reduction in RNA integrity [1]: 75.8% | effect on RNA integrity (in words) (A2780 cells): greatest reduction

CC[C@]1(O)C[C@@H]2CN(CCc3c([nH]c4ccccc34)[C@@](C(=O)OC)(c3cc4c(cc3OC)N(C)[C@H]3[C@@](O)(C(=O)OC)[C@H](OC(C)=O)[C@]5(CC)C=CCN6CC[C@]43[C@@H]65)C2)C1 [vinblastine]
concentration at which reductions in RNA integrity are induced (A2780 cells, 24 h): 2.5 µM | reduction of RNA integrity (A2780 cells, lowest concentration tested 2.5 μM): almost two

CC(=O)O[C@@]12CO[C@@H]1C[C@H](O)[C@@]1(C)C(=O)[C@H](O)C3=C(C)[C@@H](OC(=O)[C@H](O)[C@@H](NC(=O)OC(C)(C)C)c4ccccc4)C[C@@](O)([C@@H](OC(=O)c4ccccc4)[C@H]21)C3(C)C [docetaxel]
RNA integrity after treatment [2]: 8.67±0.42 units | reduction in RNA integrity [3]: 7.8% | reduction in RNA integrity [1]: 18.8% | change in RNA integrity at low concentrations (A2780 cells, 24 h): little change | effect on RNA integrity (in words) (A2780 cells): minimal reduction

COc1cc([C@@H]2c3cc4c(cc3[C@@H](O[C@@H]3O[C@@H]5CO[C@@H](C)O[C@H]5[C@H](O)[C@H]3O)[C@H]3COC(=O)[C@H]23)OCO4)cc(OC)c1O [etoposide]
effect on RNA integrity at highest concentration (A2780 cells, 40 μM, 24 h): no effect | effect on RNA integrity (in words) (A2780 cells): unable to affect RNA integrity

COc1cccc2c1C(=O)c1c(O)c3c(c(O)c1C2=O)C[C@@](O)(C(=O)CO)C[C@@H]3O[C@H]1C[C@H](N)[C@H](O)[C@H](C)O1 [doxorubicin]
reduction in RNA integrity [1]: up to 20.0% | concentration at which reductions in RNA integrity are induced (A2780 cells, 24 h): 2.5 µM | effect on RNA integrity (in words) (A2780 cells): significant reductions

O=c1[nH]cc(F)c(=O)[nH]1 [5-FI-uracil, 5-fluorouracil]
concentration at which reductions in RNA integrity are induced (A2780 cells, 24 h): ≥ 20 µM

COc1cccc2c1C(=O)c1c(O)c3c(c(O)c1C2=O)C[C@@](O)(C(=O)CO)C[C@@H]3O[C@H]1C[C@H](N)[C@@H](O)[C@H](C)O1 [epirubicin]
RNA integrity after treatment [2]: 5.87±1.74 units | reduction in RNA integrity [3]: 37.7% | dose-dependent reduction in RNA quality (up to) (A2780 cells, 2.5-40 μM, 24 h, FIG. 1): up to 29.2% | concentration at which reductions in RNA integrity are induced (A2780 cells, 24 h): 2.5 µM

N.N.[Cl][Pt][Cl] [cisplatin]
effect on RNA integrity at highest concentration (A2780 cells, 40 μM, 24 h): substantial and statistically significant reductions | change in RNA integrity at low concentrations (A2780 cells, 24 h): no effect
